Measurements taken from patent publication US20260014147A1, “STAT6 DEGRADERS” (Gilead Sciences, Inc., priority 2024, published 2026).

Legend:
[1] = target: T1, STAT6 (endogenous, HiBiT-tagged) in HeLa LgBiT clone 4.14 cells (Homo sapiens, UniProt P42226); assay: STAT6 Degrader Assay (HiBiT based, HeLa LgBiT clone 4.14 cells, luminescence, DC50); type: cell-based; details: geometric mean; for Emax: Emax provided for test compounds with <80% Emax (and 2c15), read-out: STAT6 degradation Emax
T1 construct: These cells express endogenous STAT6; host or cells: HeLa LgBiT clone 4.14
T1 sequence (P42226 1-847): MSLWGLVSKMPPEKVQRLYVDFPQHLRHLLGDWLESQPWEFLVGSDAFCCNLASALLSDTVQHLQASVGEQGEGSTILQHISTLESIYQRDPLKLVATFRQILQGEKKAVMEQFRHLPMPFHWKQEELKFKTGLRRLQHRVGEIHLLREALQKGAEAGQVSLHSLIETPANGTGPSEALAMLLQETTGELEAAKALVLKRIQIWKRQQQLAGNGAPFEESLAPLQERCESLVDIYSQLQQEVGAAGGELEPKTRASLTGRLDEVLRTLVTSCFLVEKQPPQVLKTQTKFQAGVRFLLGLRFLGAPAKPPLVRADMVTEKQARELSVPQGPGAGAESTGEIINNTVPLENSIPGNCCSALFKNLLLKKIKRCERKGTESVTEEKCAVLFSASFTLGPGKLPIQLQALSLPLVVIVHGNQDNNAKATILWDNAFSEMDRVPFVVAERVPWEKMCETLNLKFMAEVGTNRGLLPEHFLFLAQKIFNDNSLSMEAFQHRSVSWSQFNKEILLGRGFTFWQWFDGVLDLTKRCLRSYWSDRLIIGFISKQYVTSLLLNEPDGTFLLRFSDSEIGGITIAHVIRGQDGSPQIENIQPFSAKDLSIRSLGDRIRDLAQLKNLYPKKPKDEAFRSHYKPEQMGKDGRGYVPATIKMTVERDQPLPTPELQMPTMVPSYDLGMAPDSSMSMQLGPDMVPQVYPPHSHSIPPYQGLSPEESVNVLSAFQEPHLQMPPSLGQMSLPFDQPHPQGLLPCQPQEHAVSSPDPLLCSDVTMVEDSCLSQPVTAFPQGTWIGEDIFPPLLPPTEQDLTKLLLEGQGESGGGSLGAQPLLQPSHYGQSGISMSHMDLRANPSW
Procedure, shortened: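 HeLa LgBiT clone 4.14 cells carry CRISPR-inserted HiBiT on endogenous STAT6; 5000 cells/well were exposed to compound for 4-24 h at 37 °C, 5% CO2. Nano-Glo substrate added for 0.5 h; luminescence reflects remaining STAT6, with terfenadine ([…]) wells defining 100% degradation.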

[2] = target: T2, human STAT6 (truncated, aa122-658, with N-terminal His-tag) (Homo sapiens, UniProt P42226); assay: Surface Plasmon Resonance (SPR) assay: binding of compounds to immobilized human STAT6; details: immobilized human STAT6 (aa122-658), 25° C.; geometric mean
T2 construct: Human STAT6 (truncated, aa122-658, with N-terminal His-tag, expressed in insect cells); His-tag (N); made in house; host or cells: insect cells
T2 sequence (P42226 122-658): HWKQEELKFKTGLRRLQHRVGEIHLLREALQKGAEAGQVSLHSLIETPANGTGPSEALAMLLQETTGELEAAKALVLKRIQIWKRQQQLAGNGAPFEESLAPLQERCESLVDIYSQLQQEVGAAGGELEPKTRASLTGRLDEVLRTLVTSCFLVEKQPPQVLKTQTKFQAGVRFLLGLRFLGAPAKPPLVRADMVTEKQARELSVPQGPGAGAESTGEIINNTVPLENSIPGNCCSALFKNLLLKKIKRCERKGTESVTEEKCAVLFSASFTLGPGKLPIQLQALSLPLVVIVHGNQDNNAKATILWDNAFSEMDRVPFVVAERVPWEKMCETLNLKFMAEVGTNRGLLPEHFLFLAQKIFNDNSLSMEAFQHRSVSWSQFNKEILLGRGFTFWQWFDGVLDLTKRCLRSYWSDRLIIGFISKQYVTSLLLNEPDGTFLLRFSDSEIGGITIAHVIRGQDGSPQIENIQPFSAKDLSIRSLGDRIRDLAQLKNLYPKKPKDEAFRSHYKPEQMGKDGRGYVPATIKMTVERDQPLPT
Method: SPR was used to confirm and quantify binding of compounds to human STAT6. Biacore instruments from the 8K-series (Cytiva) were used, and measurements were performed at 25° C. Human STAT6 (truncated, aa122-658, with N-terminal His-tag, expressed in insect cells) was immobilized in the active flow cells on a CM5 chip using amine-coupling (default settings) at 10 μg/ml in 10 mM acetate buffer pH 5.5, at a contact time of 120-420 sec. and a flow rate of […]. Reference flow cells were deactivated using blank immobilization. PBS-P+ (Cytiva) supplemented with 2% DMSO was used as running buffer, and solvent correction was applied. Compounds were tested by multi-cycle kinetics injections using a contact time of 60 sec., dissociation time of up to 300 sec., and a flow rate of […].
Solvent-corrected, reference-subtracted and blank-corrected data was processed and binding isotherms were fitted according to a single report point from each sensorgram (Standard: Late binding (5 sec. before injection end); alternative: Earlier report point according to binding profile). Data fitting was done both with unfixed Rmax and with Rmax fixed to the theoretical value* assuming 1:1 binding to allow processing of data from both weak and strong binders as well as to evaluate binding stoichiometry.
Positive controls were run at the beginning, during, and at the end of the screen to evaluate surface activity. Generally surface activity was only affected to a minor degree, and no corrections were applied.
*Equation for calculation of the theoretical Rmax (Theoretical Rmax=(MW Analyte/MW Ligand) x immobilization level).
The sensorgrams for Examples 2a1, 2t1, 2m1, and 2a2 are shown below (where RU is plotted vs. time in seconds; dotted lines/points were excluded from the analysis due to effects from non-specific binding).

[3] = tested on: Eotaxin-3 (CCL26) release in human whole blood stimulated with IL-4; assay: Human Whole Blood Eotaxin-3 Assay (IL-4 stimulated, inhibition of eotaxin-3 release); type: cell-based; details: Homo sapiens, EC50 provided for test compounds with >80% Emax, geometric mean across assay runs and batches
Procedure, shortened: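 Lithium-heparin human whole blood preincubated 2 h at 37 °C with compounds (4-fold serial dilution, triplicate, 0.5% DMSO final), then stimulated with 400 pM IL-4 for 48 h. Eotaxin-3 (CCL26) in supernatant quantified by MSD immunoassay.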

| Structure (SMILES) | Emax [1] | Kd [2] | EC50 [3] | DC50 ([1]; DC50 provided for test compounds with >80% Emax, read-out: STAT6 degradation DC50) |
| --- | --- | --- | --- | --- |
| Cn1c(CN2CCC(c3ccc(C(=O)N4CCN(C(=O)CN5CCN(c6ccc(NC7CCC(=O)NC7=O)cc6F)CC5)CC4)cc3)CC2)cc2c(-c3ccc4[nH]ncc4c3)ccnc21 (centres unmarked) [Example 2a2, 3-((4-(4-(2-(4-(4-(1-((4-(1H-indazol-5-yl)-1-methyl-1H-pyrrolo[2,3-b]pyridin-2-yl)methyl)-piperidin-4-yl)benzoyl)piperazin-1-yl)-2-oxoethyl)piperazin-1-yl)-3-fluorophenyl)amino)piperidine-2,6-dione] | 60 to 70% | 61.2 nM |  |  |
| Cn1c(CN2CCC(c3ccc(C(=O)N4CCC(CN5CCN(c6ccc(NC7CCC(=O)NC7=O)cc6F)CC5)CC4)cc3)CC2)cc2c(-c3ccc4[nH]ncc4c3)ccnc21 (centres unmarked) [Example 2c1, 3-((4-(4-((1-(4-(1-((4-(1H-indazol-5-yl)-1-methyl-1H-pyrrolo[2,3-b]pyridin-2-yl)methyl)-piperidin-4-yl)benzoyl)piperidin-4-yl)methyl)piperazin-1-yl)-3-fluorophenyl)amino)piperidine-2,6-dione] | 70 to 80% | 193 nM | 556 nM |  |
| Cn1c(CN2CCC(c3ccc(C(=O)N4CCC(CN5CCN(c6ccc(NC7CCC(=O)NC7=O)cc6F)CC5)CC4)cc3)CC2)cc2c(-c3cnc(N)c(F)c3)ccnc21 (centres unmarked) [Example 2c3, 3-((4-(4-((1-(4-(1-((4-(6-amino-5-fluoropyridin-3-yl)-1-methyl-1H-pyrrolo[2,3-b]pyridin-2-yl)-methyl)piperidin-4-yl)benzoyl)piperidin-4-yl)methyl)piperazin-1-yl)-3-fluorophenyl)amino)piperidine-2,6-dione] | < 20% | < 20 nM |  |  |
| Cn1c(CN2CCC(c3ccc(C(=O)N4CCC(CN5CCN(c6ccc(NC7CCC(=O)NC7=O)cc6F)CC5)CC4)cc3)CC2)cc2c(-c3ccc(N)nc3C#N)ccnc21 (centres unmarked) [Example 2c8, 6-amino-3-(2-((4-(4-(4-((4-(4-((2,6-dioxopiperidin-3-yl)amino)-2-fluorophenyl)piperazin-1-yl)-methyl)piperidine-1-carbonyl)phenyl)piperidin-1-yl)methyl)-1-methyl-1H-pyrrolo[2,3-b]pyridin-4-yl)-picolinonitrile] | < 20% | 40 to 50 nM |  |  |
| Cn1c(CN2CCC(c3ccc(C(=O)N4CCC(CN5CCN(C(=O)c6ccc(NC7CCC(=O)NC7=O)cc6F)CC5)CC4)cc3)CC2)cc2c(-c3ccc4[nH]ncc4c3)ccnc21 (centres unmarked) [Example 2e1, 3-((4-(4-((1-(4-(1-((4-(1H-indazol-5-yl)-1-methyl-1H-pyrrolo[2,3-b]pyridin-2-yl)methyl)-piperidin-4-yl)benzoyl)piperidin-4-yl)methyl)piperazine-1-carbonyl)-3-fluorophenyl)amino)piperidine-2,6-dione] | < 20% | < 20 nM |  |  |

Second part, the compound after the results:

| Emax [1] | Kd [2] | EC50 [3] | DC50 ([1]; DC50 provided for test compounds with >80% Emax, read-out: STAT6 degradation DC50) | Structure (SMILES) |
| --- | --- | --- | --- | --- |
| 60 to 70% | 466 nM |  |  | Cn1c(CN2CCC(c3ccc(C(=O)N4CCC(CN5CCC(c6ccc(NC7CCC(=O)NC7=O)cc6F)CC5)CC4)cc3)CC2)cc2c(-c3ccc4[nH]ncc4c3)ccnc21 (centres unmarked) [Example 2m1, 3-((4-(1-((1-(4-(1-((4-(1H-indazol-5-yl)-1-methyl-1H-pyrrolo[2,3-b]pyridin-2-yl)methyl)-piperidin-4-yl)benzoyl)piperidin-4-yl)methyl)piperidin-4-yl)-3-fluorophenyl)amino)piperidine-2,6-dione] |
|  | 105 nM |  | 8.1 nM | Cn1c(CN2CCC(c3ccc(C(=O)N4CCN(C(=O)CN5CCC(c6ccc(OC7CCC(=O)NC7=O)cc6F)CC5)CC4)cc3)CC2)cc2c(-c3ccc4[nH]ncc4c3)ccnc21 (centres unmarked) [Example 2t1, 3-(4-(1-(2-(4-(4-(1-((4-(1H-indazol-5-yl)-1-methyl-1H-pyrrolo[2,3-b]pyridin-2-yl)methyl)-piperidin-4-yl)benzoyl)piperazin-1-yl)-2-oxoethyl)piperidin-4-yl)-3-fluorophenoxy) piperidine-2,6-dione] |
| < 20% | < 20 nM |  |  | Cn1c(CN2CCC(c3ccc(C(=O)N4CCC(CN5CCC(n6ncc7cc(NC8CCC(=O)NC8=O)ccc76)CC5)CC4)cc3)CC2)cc2c(-c3ccc4[nH]ncc4c3)ccnc21 (centres unmarked) [Example 2t4, 3-((1-(1-((1-(4-(1-((4-(1H-indazol-5-yl)-1-methyl-1H-pyrrolo[2,3-b]pyridin-2-yl)methyl)-piperidin-4-yl)benzoyl)piperidin-4-yl)methyl)piperidin-4-yl)-1H-indazol-5-yl)amino)piperidine-2,6-dione] |
